Laboratory results taken from ChEMBL document CHEMBL5226303, “GPR120/FFAR4 Pharmacology: Focus on Agonists in Type 2 Diabetes Mellitus Drug Discovery” (J Med Chem, 2021).

What was measured:
[1] = target: T1, Free fatty acid receptor 4 (Homo sapiens, UniProt Q5NUL3); experiment: Agonist activity at human GPR120 expressed in CHO-K1 cells by beta-arrestin assay; assay type: cell-based
T1 sequence (Q5NUL3 whole entry): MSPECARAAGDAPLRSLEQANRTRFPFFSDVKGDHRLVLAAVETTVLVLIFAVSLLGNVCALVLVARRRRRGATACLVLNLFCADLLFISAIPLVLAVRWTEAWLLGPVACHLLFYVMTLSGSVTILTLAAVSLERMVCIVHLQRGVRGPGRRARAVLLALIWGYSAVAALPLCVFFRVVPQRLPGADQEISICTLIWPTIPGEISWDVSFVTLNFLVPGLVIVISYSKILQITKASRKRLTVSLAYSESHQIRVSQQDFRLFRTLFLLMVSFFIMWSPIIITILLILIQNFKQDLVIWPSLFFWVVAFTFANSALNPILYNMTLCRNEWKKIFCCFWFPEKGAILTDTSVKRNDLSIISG

DU-145 = experiment: Antiproliferative activity against LPA-induced human DU-145 cells; assay type: functional, cell-based
[2] = target: T1, Free fatty acid receptor 4; experiment: Agonist activity at human GPR120 expressed in HEK293 cells by beta-arrestin assay; assay type: cell-based
[3] = target: T1, Free fatty acid receptor 4; experiment: Agonist activity at human GPR120 expressed in HEK293 cells assessed as calcium accumulation; assay type: cell-based
[4] = Agonist activity at FFA receptor (unknown origin); set-up: species or system Homo sapiens

Structure (SMILES): C#Cc1cc(Oc2cccnc2)cc(N2Cc3ccccc3S2(=O)=O)c1
- EC50 [1]: 5.2 nM

Structure (SMILES): CC/C=C\C/C=C\C/C=C\C/C=C\C/C=C\C/C=C\CCC(=O)O [DOCONEXENT]
- IC50 (DU-145): 73 nM

Structure (SMILES): OCCCc1c(F)cc(OCc2c(-c3ccc(Cl)cc3)csc2C(F)(F)F)cc1F
- EC50 [2]: 125 nM
- EC50 [3]: 165 nM

Structure (SMILES): CC(C)=CCC/C(C)=C/CC/C(C)=C/Cc1c(O)cc(C)c(C(=O)O)c1O [GRIFOLIC ACID]
- IC50 (DU-145): 5700 nM

Structure (SMILES): CCCCC/C=C\C/C=C\CCCCCCCC(=O)O [LINOLEIC ACID]
- pEC50 [4]: 5.16
